{
  "source": "ChEMBL document CHEMBL4699579",
  "about": "“A Peptidyl Inhibitor that Blocks Calcineurin-NFAT Interaction and Prevents Acute Lung Injury” (J Med Chem, 2020)",
  "test": "Drug distribution in BALB/c mouse spleen at […], ip using compound labelled with cyanine-5 measured after 24 hrs by fluorescence based assay",
  "format": "ADME, organism-based",
  "settings": "in vivo, dose 2.4 mg/kg; call rule not given here",
  "note": "Positions of bridges follow the written chain, without caps; N, C: chain ends. Non-standard residues stand in square brackets, D forms with d. Residues, ends and D or L forms follow the SMILES beside them. Chains are numbered I, II in the order given. *: point of attachment. 2Nal = N[C@@H](Cc1ccc2ccccc2c1)C(=O)O; Val(3-OH) = CC(C)(O)[C@H](N)C(=O)O; Tle = CC(C)(C)[C@H](N)C(=O)O; X1 = O=C(c1ccnc(Cl)c1Cl)*; AEEA = NCCOCCOCC(=O)O",
  "data": [
    {"compound": "CC[C@H](C)[C@H](NC(=O)[C@@H](NC(=O)c1ccnc(Cl)c1Cl)C(C)(C)C)C(=O)N[C@H](C(=O)N[C@H](C(=O)N[C@H](C(=O)N[C@@H](CCC(N)=O)C(=O)N[C@@H](Cc1c[nH]cn1)C(=O)N[C@H](CC(C)C)C(=O)N[C@@H](CO)C(=O)NCCOCCOCC(=O)N[C@@H](CCCCNC(=O)CC[C@@H]1NC(=O)[C@@H](CCCNC(=N)N)NC(=O)[C@H](CCCNC(=N)N)NC(=O)[C@@H](CCCNC(=N)N)NC(=O)[C@H](CCCNC(=N)N)NC(=O)[C@H](Cc2ccc3ccccc3c2)NC(=O)[C@@H](Cc2ccccc2)NC1=O)C(N)=O)[C@@H](C)O)[C@@H](C)CC)C(C)(C)O", "note": "(I: X1-[Tle]I[Val(3-OH)]ITQH[dL]S[AEEA]K-NH2 / II: cyclo([2Nal]R[dR]R[dR]E[dF]); amide I:11-II:6)", "values": [
      {"measurement": "Drug uptake", "value": "Active"}
    ]}
  ]
}
